The results in this text go back to patent US11472803B2, “7-substituted 1-aryl-naphthyridine-3-carboxylic acid amides and use thereof” (Bayer Aktiengesellschaft, priority 2016, dated 2022).

The experiment deals with T1, human M2 receptor (Homo sapiens, UniProt P08172).
T1 construct: expressed in transfected cells; host or cells: CHO-DUKX (CHO-DUKX-M2-GIRK)
T1 sequence (P08172 1-466): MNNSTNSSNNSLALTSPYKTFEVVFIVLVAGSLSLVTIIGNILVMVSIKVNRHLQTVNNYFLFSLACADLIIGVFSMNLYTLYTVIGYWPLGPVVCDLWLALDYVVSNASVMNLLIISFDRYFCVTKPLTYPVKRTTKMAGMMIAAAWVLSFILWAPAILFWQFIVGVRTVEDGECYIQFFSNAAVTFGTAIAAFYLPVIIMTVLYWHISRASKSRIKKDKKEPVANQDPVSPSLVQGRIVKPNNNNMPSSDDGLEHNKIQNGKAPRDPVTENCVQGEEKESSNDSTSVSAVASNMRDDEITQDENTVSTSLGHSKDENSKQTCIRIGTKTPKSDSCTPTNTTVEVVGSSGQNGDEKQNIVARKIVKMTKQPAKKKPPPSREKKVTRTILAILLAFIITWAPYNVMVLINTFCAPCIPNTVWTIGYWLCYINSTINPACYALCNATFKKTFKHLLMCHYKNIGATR
Description: Functional M2-GIRK1/4 activation test: allosteric potency (EC50) and efficiency at EC20 acetylcholine. The class given is cell-based. The conditions noted are these: CHO-DUKX-M2-GIRK cells; for EC50: voltage-sensitive dye, acetylcholine at EC20, in some cases mean of two or more determinations; for Emax: boosting of the acetylcholine effect at EC20 acetylcholine concentration. The method, boiled down: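 Positive allosteric modulation measured as boosting of an EC20 acetylcholine response: hyperpolarization via GIRK1/4 in CHO-DUKX-M2-GIRK cells, monitored by membrane-potential dye fluorescence over 60 s after agonist, compound preadded. Hill-function fit gives EC50 and efficiency.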

Usually EC50 stands for the concentration needed to bring the measured effect to its halfway point. Low values mean greater potency, high ones weaker potency. As usually defined, the Emax is the maximal effect, on the per cent scale that the assay sets.

The compound `CN1CCN(c2nc3c(cc2F)c(=O)c(C(=O)N[C@@H](C2CC2)C(F)(F)F)cn3-c2c(F)cc(F)cc2F)C(CO)C1` (stereo partly drawn) [Example 176, N-[(1S)-1-Cyclopropyl-2,2,2-trifluoroethyl]-6-fluoro-7-[2-(hydroxymethyl)-4-methylpiperazin-1-yl]-4-oxo-1-(2,4,6-trifluorophenyl)-1,4-dihydro-1,8-naphthyridine-3-carboxamide] yielded a 50% effective concentration (EC50) of 110 nM and a maximum response (Emax) of 91%.
The corresponding values for `CC(C)(C)C(NC(=O)c1cn(-c2c(F)cc(F)cc2F)c2nc(N3CC4(COC4)C3)c(F)cc2c1=O)C(F)(F)C(F)(F)F` (single isomer, unassigned) [Example 213, 6-Fluoro-7-(2-oxa-6-azaspiro[3.3]hept-6-yl)-4-oxo-N-[1,1,1,2,2-pentafluoro-4,4-dimethylpentan-3-yl]-1-(2,4,6-trifluorophenyl)-1,4-dihydro-1,8-naphthyridine-3-carboxamide] are 13 nM and 100%.
In the case of `O=C(NC(c1ccccc1Cl)C(F)(F)F)c1cn(-c2ccc(F)cc2F)c2ncc(Cl)cc2c1=O` (racemic) [Example 134, 6-Chloro-N-[1-(2-chlorophenyl)-2,2,2-trifluoroethyl]-1-(2,4-difluorophenyl)-4-oxo-1,4-dihydro-1,8-naphthyridine-3-carboxamide], it took 1830 nM to reach a half-maximal effect (EC50) and the maximal response (Emax) is 55%.
Consider `CN(C)c1nc2c(cc1F)c(=O)c(C(=O)NC(C)(C)CC(F)(F)F)cn2-c1c(F)cc(F)cc1F` [Example 63, 7-(Dimethylamino)-6-fluoro-4-oxo-N-(4,4,4-trifluoro-2-methylbutan-2-yl)-1-(2,4,6-trifluoro-phenyl)-1,4-dihydro-1,8-naphthyridine-3-carboxamide], for which the EC50 stood at 3.9 nM and the Emax was 92%.
The corresponding values for `O=C(N[C@@H](C1CC1)C(F)(F)F)c1cn(-c2c(F)cc(F)cc2Cl)c2nc(N3CC(CO)(CO)C3)c(F)cc2c1=O` (single isomer, unassigned) [Example 70] are 100 nM and 86%.
The corresponding values for `CC(C)C(NC(=O)c1cn(-c2c(F)cc(F)cc2F)c2nc(N3CC[C@H](O)C3)c(F)cc2c1=O)C(C)C` [Example 122, N-(2,4-Dimethylpentan-3-yl)-6-fluoro-7-[(3S)-3-hydroxypyrrolidin-1-yl]-4-oxo-1-(2,4,6-tri-fluorophenyl)-1,4-dihydro-1,8-naphthyridine-3-carboxamide] are 3.55 nM and 100%.
The corresponding values for `C[C@H](NC(=O)c1cn(-c2c(F)cc(F)cc2Cl)c2nc(N3C[C@@H](O)[C@H](O)C3)c(F)cc2c1=O)C(F)(F)F` [Example 224, 1-(2-Chloro-4,6-difluorophenyl)-7-[(3R,4R)-3,4-dihydroxypyrrolidin-1-yl]-6-fluoro-4-oxo-N-[(2S)-1,1,1-trifluoropropan-2-yl]-1,4-dihydro-1,8-naphthyridine-3-carboxamide] are 10 nM and 96%.
